Assay results as given in ChEMBL document CHEMBL1201862, “PubChem BioAssay data set” (2004).
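Briefly, cells in 96-well plates were exposed to five compound concentrations for 48 h, and endpoints were estimated by linear interpolation. At the GI50, growth is halved.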 Active and inactive are the calls of the source. Rule as the data show it: active = GI50 up to about 1.1 µM and inactive = higher.

How the values were obtained:
Experiment in all cases: NCI tumour cell line growth inhibition, 48 h
NCI-H460 = test system: NCI-H460
SK-MEL-5 = test system: SK-MEL-5
NCI-H226 = test system: NCI-H226
OVCAR-3 = test system: OVCAR-3
HOP-62 = test system: HOP-62
EKVX = test system: EKVX
SK-OV-3 = test system: SK-OV-3
NCI-H23 = test system: NCI-H23
TK-10 = test system: TK-10
MOLT-4 = test system: MOLT-4
HCT-15 = test system: HCT-15
MDA-N = test system: MDA-N
DU-145 = test system: DU-145
SNB-19 = test system: SNB-19
HT-29 = test system: HT-29
SF-539 = test system: SF-539
NCI-H522 = test system: NCI-H522
UO-31 = test system: UO-31
NCI/ADR-RES = test system: NCI/ADR-RES
SW-620 = test system: SW-620
SNB-75 = test system: SNB-75
SN12C = test system: SN12C
SR = test system: SR
SF-295 = test system: SF-295
COLO 205 = test system: COLO 205
OVCAR-4 = test system: OVCAR-4
SK-MEL-2 = test system: SK-MEL-2
LOX IMVI = test system: LOX IMVI
SF-268 = test system: SF-268
MDA-MB-231 = test system: MDA-MB-231
CAKI-1 = test system: CAKI-1
UACC-62 = test system: UACC-62
ACHN = test system: ACHN
MDA-MB-435 = test system: MDA-MB-435
U-251 = test system: U-251
K562 = test system: K562
UACC-257 = test system: UACC-257
SK-MEL-28 = test system: SK-MEL-28
OVCAR-8 = test system: OVCAR-8
HOP-92 = test system: HOP-92
Hs-578T = test system: Hs-578T
HL-60 = test system: HL-60
CCRF-CEM = test system: CCRF-CEM
RPMI-8226 = test system: RPMI-8226
A549 = test system: A549
OVCAR-5 = test system: OVCAR-5
MCF7 = test system: MCF7
KM12 = test system: KM12
M14 = test system: M14
Malme-3M = test system: Malme-3M
PC-3 = test system: PC-3
RXF 393 = test system: RXF 393
IGROV-1 = test system: IGROV-1
A498 = test system: A498
HCT-116 = test system: HCT-116
T47D = test system: T47D
HCC 2998 = test system: HCC 2998

## CN(CC(=O)O)c1ncc2c(n1)-c1ccccc1OC2c1ccccc1 (stereo not drawn)
NCI-H460
  GI50: 89.7 µM (inactive)
SK-MEL-5
  GI50: > 100 µM (inactive)
NCI-H226
  GI50: 86.7 µM (inactive)
OVCAR-3
  GI50: > 100 µM (inactive)
HOP-62
  GI50: > 100 µM (inactive)
EKVX
  GI50: > 100 µM (inactive)
SK-OV-3
  GI50: > 100 µM (inactive)
NCI-H23
  GI50: 51.6 µM (inactive)
TK-10
  GI50: > 100 µM (inactive)
MOLT-4
  GI50: 29.2 µM (inactive)
HCT-15
  GI50: > 100 µM
MDA-N
  GI50: > 100 µM (inactive)
DU-145
  GI50: > 100 µM (inactive)
SNB-19
  GI50: > 100 µM (inactive)
HT-29
  GI50: > 100 µM (inactive)
SF-539
  GI50: > 100 µM (inactive)
NCI-H522
  GI50: > 100 µM (inactive)
UO-31
  GI50: 38 µM (inactive)
NCI/ADR-RES
  GI50: > 100 µM (inactive)
SW-620
  GI50: > 100 µM (inactive)
SNB-75
  GI50: 43.6 µM (inactive)
SN12C
  GI50: > 100 µM (inactive)
SR
  GI50: 37 µM (inactive)
SF-295
  GI50: > 100 µM (inactive)
COLO 205
  GI50: > 100 µM (inactive)
OVCAR-4
  GI50: > 100 µM (inactive)
SK-MEL-2
  GI50: 87.7 µM (inactive)
LOX IMVI
  GI50: > 100 µM (inactive)
SF-268
  GI50: > 100 µM (inactive)
MDA-MB-231
  GI50: > 100 µM (inactive)
CAKI-1
  GI50: > 100 µM (inactive)
UACC-62
  GI50: 92.5 µM (inactive)
ACHN
  GI50: > 100 µM (inactive)
MDA-MB-435
  GI50: > 100 µM (inactive)
U-251
  GI50: > 100 µM (inactive)
K562
  GI50: 71.8 µM (inactive)
UACC-257
  GI50: > 100 µM (inactive)
SK-MEL-28
  GI50: > 100 µM (inactive)
OVCAR-8
  GI50: > 100 µM (inactive)
HOP-92
  GI50: > 100 µM (inactive)
Hs-578T
  GI50: > 100 µM (inactive)
HL-60
  GI50: 33.2 µM (inactive)
CCRF-CEM
  GI50: 44.3 µM (inactive)
RPMI-8226
  GI50: 38.1 µM (inactive)
A549
  GI50: 76.4 µM (inactive)
OVCAR-5
  GI50: > 100 µM (inactive)
MCF7
  GI50: > 100 µM (inactive)
KM12
  GI50: 79.6 µM (inactive)
M14
  GI50: > 100 µM (inactive)
Malme-3M
  GI50: > 100 µM (inactive)
PC-3
  GI50: 61.1 µM (inactive)
RXF 393
  GI50: 56.1 µM (inactive)
IGROV-1
  GI50: > 100 µM (inactive)

## CN(C)N1C(=O)C(=O)N(c2cccc3ccccc23)C1=O
NCI-H460
  GI50: > 10 µM (inactive)
SK-MEL-5
  GI50: > 10 µM (inactive)
NCI-H226
  GI50: > 10 µM (inactive)
OVCAR-3
  GI50: > 10 µM (inactive)
HOP-62
  GI50: > 10 µM (inactive)
EKVX
  GI50: > 10 µM (inactive)
SK-OV-3
  GI50: > 10 µM (inactive)
NCI-H23
  GI50: > 10 µM (inactive)
TK-10
  GI50: > 10 µM (inactive)
MOLT-4
  GI50: > 10 µM (inactive)
HCT-15
  GI50: > 10 µM
MDA-N
  GI50: > 10 µM (inactive)
DU-145
  GI50: > 10 µM (inactive)
SNB-19
  GI50: > 10 µM (inactive)
HT-29
  GI50: > 10 µM (inactive)
SF-539
  GI50: > 10 µM (inactive)
NCI-H522
  GI50: > 10 µM (inactive)
UO-31
  GI50: > 10 µM (inactive)
NCI/ADR-RES
  GI50: > 10 µM (inactive)
A498
  GI50: > 10 µM (inactive)
SW-620
  GI50: > 10 µM (inactive)
HCT-116
  GI50: > 10 µM (inactive)
SNB-75
  GI50: > 10 µM (inactive)
SN12C
  GI50: > 10 µM (inactive)
SR
  GI50: > 10 µM (inactive)
SF-295
  GI50: > 10 µM (inactive)
COLO 205
  GI50: > 10 µM (inactive)
OVCAR-4
  GI50: > 10 µM (inactive)
SK-MEL-2
  GI50: > 10 µM (inactive)
LOX IMVI
  GI50: > 10 µM (inactive)
SF-268
  GI50: > 10 µM (inactive)
MDA-MB-231
  GI50: > 10 µM (inactive)
CAKI-1
  GI50: > 10 µM (inactive)
UACC-62
  GI50: > 10 µM (inactive)
T47D
  GI50: > 10 µM (inactive)
ACHN
  GI50: > 10 µM (inactive)
MDA-MB-435
  GI50: > 10 µM (inactive)
U-251
  GI50: > 10 µM (inactive)
HCC 2998
  GI50: > 10 µM (inactive)
K562
  GI50: > 10 µM (inactive)
SK-MEL-28
  GI50: > 10 µM (inactive)
OVCAR-8
  GI50: > 10 µM (inactive)
Hs-578T
  GI50: > 10 µM (inactive)
HL-60
  GI50: > 10 µM (inactive)
CCRF-CEM
  GI50: > 10 µM (inactive)
RPMI-8226
  GI50: > 10 µM (inactive)
A549
  GI50: > 10 µM (inactive)
OVCAR-5
  GI50: > 10 µM (inactive)
MCF7
  GI50: > 10 µM (inactive)
KM12
  GI50: > 10 µM (inactive)
M14
  GI50: > 10 µM (inactive)
Malme-3M
  GI50: > 10 µM (inactive)
PC-3
  GI50: > 10 µM (inactive)
RXF 393
  GI50: > 10 µM (inactive)
IGROV-1
  GI50: > 10 µM (inactive)
